According to publication PMC11784013, “Potassium molybdate blocks APN-dependent coronavirus entry by degrading receptor via PIK3C3-mediated autophagy” (Journal of Virology, 2024):

Tested on: autophagy markers P62 and LC3
Experiment: Autophagy markers P62 and LC3 in ST cells (western blot)
Type: cell-based, swine
Settings: PM 10 mM; for LC3 (LC3-Ⅱ) level, western blot, relative to WT without PM (=1) / P62 level, western blot, relative to WT without PM (=1): PRCV 0.1 MOI, 16 h
Description: Fig 6 PM degrades APN by autophagy-lysosome pathway. (A) ST cells were treated with PM (10 mM) and infected with TGEV (0.1 MOI) in the presence and absence of MG132 (20 µM), 3-MA (20 mM), and Z-VAD-FMK (20 µM) for 16 h. The APN expression and TGEV N were detected by western blot. (B) ST cells were treated with PM (10 mM) at 2, 4, 8, and 16 h, autophagy markers P62 and LC3, and APN were measured by western blot. (C) ST cells were transfected with RFP-EGFP-LC3B for 12 h and then treated with PM (10 mM) or H2O for 36 h. The fluorescence of GFP and RFP was detected by confocal microscopy, scale bar: 5 µm. (D) Quantification of autophagosomes (Merge) and autolysosomes (RFP) from C using Image J software. (E) ST cells were treated with PM or H2O for 24 h. The autophagosomes (yellow arrow) and autolysosomes (asterisk) were detected by transmission electron microscope, scale bar: 2 µm. (F) The number of autophagosomes (yellow arrow) and autolysosomes (asterisk) was quantified. All western blot results were calculated by Image J. Results are presented as mean ± SD of data from three independent experiments. ***, P ≤ 0.001.
Cotransfected cells were washed with cold PBS twice and lysed with NP40 lysis buffer (Beyotime, China, P0013F) supplemented with 1 mM PMSF (Beyotime, China, ST506) and phosphatase inhibitors (Beyotime, China, P1096). Lysis buffer containing cells was added to 20 µL of protein A+G agarose beads (Beyotime, China, P2055) and IgG (Santa Cruz, USA, 2025) on a rotating device for 4 h at 4°C to remove nonspecific proteins, after which the mixture was centrifuged at 2,500 rpm for 5 min. The supernatant was harvested, and anti-Flag/Myc/His/IgG antibodies were added to the samples on a rocking platform overnight at 4°C. Subsequently, 40 µL of protein A+G agarose beads were added to the supernatant containing the antibody, which was incubated for 4 h at 4°C on a rotating device. After washing with lysis buffer three times, the immunoprecipitates were collected by centrifugation, and the supernatant was discarded. Immunoprecipitated proteins were detected by western blotting. For the western blot, the proteins were separated by SDS‒PAGE and transferred onto a PVDF membrane (GE, USA, 10600023). The membranes were blocked in 5% nonfat milk at room temperature for 2 h and then incubated with specific primary antibodies overnight. Subsequently, the membrane was incubated with the secondary antibody for 1 h at room temperature. Finally, the proteins on the membranes were visualized with WesternBright ECL (Advansta, USA, K-12045-D50).
Fig. S8. PM inhibits PRCV infection by degrading APN via PIK3C3-mediated autophagy. (A-C) WT ST cells and PIK3C3 KO ST cells were treated with PM (10 mM) and infected with PRCV (0.1 MOI) for 16 h. Then the APN, PIK3C3, ATG14, BECN1, P62, PRCV N and LC3 were detected by western blot (A), and viral titers and PRCV N mRNA level were determined by TCID50 (B) and RT-qPCR (C) . (D-F) WT ST cells and PIK3C3 KO ST cells transfected with pCMV-Myc and pCMV-Myc-PIK3C3 respectively for 24 h were treated with PM (10 mM) and infected with PRCV (0.1 MOI) for 16 h. The APN, PIK3C3, P62, PRCV N and LC3 were determined by western blot (D). TCID50 (E) and RT-qPCR (F) were performed to detect viral titers and PRCV N m RNA level. All western blot results were calculated by Image J. Results are presented as mean ± SD of data from three independent experiments (also on this page, place not known: 6 8 10 12 Viral load(log copies/ul) *** 2 4 6 8 log10 TCID50/ml *** 6 8 10 12 + Viral load(log copies/ul) PIK3C3-Myc + - + + + *** *** 2 4 6 8 log10 TCID50/ml *** + + + + PIK3C3-Myc - - - + - + + + *** WT KO PM (C). WT KO PM PRCV PM - + + PRCV + + + WT PIK3C3 KO PIK3C3 PRCV PIK3C3-Myc - - - + PM - + + + PRCV + + + + WT PIK3C3 KO 0 0) […]

[1] = Fig. S8D, PIK3C3 KO ST cells with PIK3C3-Myc
[2] = Fig. S8D, PIK3C3 KO ST cells without PIK3C3-Myc
[3] = Fig. S8D, WT ST cells with pCMV-Myc

[K+].[K+].[O]=[Mo](=[O])([O-])[O-] [PM, potassium molybdate] was tested, and the “LC3 (LC3-Ⅱ) level, western blot, relative to WT without PM (=1)” value (from here on “LC3 … relative to WT without PM (=1)”) (Fig. S8A, PIK3C3 KO ST cells) was 0.95, the “P62 level, western blot, relative to WT without PM (=1)” value (Fig. S8A, PIK3C3 KO ST cells) was 0.83 and the “LC3 … relative to WT without PM (=1)” value (Fig. S8A, WT ST cells) was 3.42. The “P62 level, western blot, relative to WT without PM (=1)” value (Fig. S8A, WT ST cells) was 0.16, the “LC3 … relative to WT without PM (=1)” value [1] was 3.45 and the “P62 level, western blot, relative to WT without PM (=1)” value [1] was 0.27. The “LC3 … relative to WT without PM (=1)” value [2] was 1.12, the “P62 level, western blot, relative to WT without PM (=1)” value [2] was 0.91 and the “LC3 … relative to WT without PM (=1)” value [3] was 3.61. The “P62 level, western blot, relative to WT without PM (=1)” value [3] was 0.26, the “LC3-II generation from LC3-I” value (ST cells, 2-16 h, western blot) was “more of the autophagosome protein LC3-II was generated” and the p62 level (ST cells, 2-16 h, western blot) was “p62 was consumed”.
